According to patent publication US7226944B2, “Taxanes having a C7 carbonate substituent” (FSU Research Foundation, Inc., priority 2000, dated 2007):

system: HCT116; experiment: In vitro cytotoxicity measured by the cell colony formation assay; format: cell-based; conditions: HCT116 cells; drug concentration producing 50% inhibition of colony formation; 72 h with drug at 37° C., colonies counted after 7 days; read-out: IN VITRO ID 50 (nm) HCT116
Description: Four hundred cells (HCT116) were plated in 60 mm Petri dishes containing 2.7 mL of medium (modified McCoy's 5a medium containing 10% fetal bovine serum and 100 units/mL penicillin and 100 µg/mL streptomycin). The cells were incubated in a CO2 incubator at 37° C. for 5 h for attachment to the bottom of Petri dishes. The compounds identified in Example 2 were made up fresh in medium at ten times the final concentration, and then 0.3 mL of this stock solution was added to the 2.7 mL of medium in the dish. The cells were then incubated with drugs for 72 h at 37° C. At the end of incubation the drug-containing media were decanted, the dishes were rinsed with 4 mL of Hank's Balance Salt Solution (HBSS), 5 mL of fresh medium was added, and the dishes were returned to the incubator for colony formation. The cell colonies were counted using a colony counter after incubation for 7 days.

| Compound | IC50 [nM] |
| --- | --- |
| COC(=O)O[C@H]1C[C@H]2OC[C@@]2(OC(C)=O)C2[C@H](OC(=O)c3ccccc3)[C@]3(O)C[C@H](OC(=O)[C@H](O)[C@@H](NC(=O)OCC(C)C)c4ccsc4)C(C)=C([C@@H](O)C(=O)[C@@]21C)C3(C)C (stereo partly drawn) [Compound 4674] | < 1 |
| C/C=C/C(=O)N[C@@H](c1ccsc1)[C@@H](O)C(=O)O[C@H]1C[C@@]2(O)[C@@H](OC(=O)c3ccccc3)C3[C@](C)(C(=O)[C@H](O)C(=C1C)C2(C)C)[C@@H](OC(=O)OC)C[C@H]1OC[C@@]31OC(C)=O (stereo partly drawn) [Compound 4969] | < 1 |
| CCOC(=O)O[C@H]1C[C@H]2OC[C@@]2(OC(C)=O)C2[C@H](OC(=O)c3ccccc3)[C@]3(O)C[C@H](OC(=O)[C@H](O)[C@@H](NC(=O)c4ccccc4)c4cccs4)C(C)=C([C@@H](O)C(=O)[C@@]21C)C3(C)C (stereo partly drawn) [Compound 4188] | < 10 |
| C/C=C/C(=O)N[C@@H](c1ccsc1)[C@@H](O)C(=O)O[C@H]1C[C@@]2(O)[C@@H](OC(=O)c3ccccc3)C3[C@](C)(C(=O)[C@H](O)C(=C1C)C2(C)C)[C@@H](OC(=O)OCC)C[C@H]1OC[C@@]31OC(C)=O (stereo partly drawn) [Compound 4999] | < 1 |
| CCOC(=O)O[C@H]1C[C@H]2OC[C@@]2(OC(C)=O)C2[C@H](OC(=O)c3ccccc3)[C@]3(O)C[C@H](OC(=O)[C@H](O)[C@H](C=C(C)C)NC(=O)OC(C)(C)C)C(C)=C([C@@H](O)C(=O)[C@@]21C)C3(C)C (stereo partly drawn) [Compound 4524] | < 1 |
| CC(=O)O[C@@]12CO[C@@H]1C[C@H](OC(=O)OCc1ccccc1)[C@@]1(C)C(=O)[C@H](O)C3=C(C)[C@@H](OC(=O)[C@H](O)[C@@H](NC(=O)OC(C)(C)C)c4ccco4)C[C@@](O)([C@@H](OC(=O)c4ccccc4)C12)C3(C)C (stereo partly drawn) [Compound 5433] | < 1 |
| CCOC(=O)O[C@H]1C[C@H]2OC[C@@]2(OC(C)=O)C2[C@H](OC(=O)c3ccccc3)[C@]3(O)C[C@H](OC(=O)[C@H](O)[C@@H](NC(=O)OC(C)C)c4cccs4)C(C)=C([C@@H](O)C(=O)[C@@]21C)C3(C)C (stereo partly drawn) [Compound 4151] | < 1 |
| CCOC(=O)O[C@H]1C[C@H]2OC[C@@]2(OC(C)=O)C2[C@H](OC(=O)c3ccccc3)[C@]3(O)C[C@H](OC(=O)[C@H](O)[C@@H](NC(=O)OC(C)(C)C)C4CC4)C(C)=C([C@@H](O)C(=O)[C@@]21C)C3(C)C (stereo partly drawn) [Compound 5165] | < 1 |
| CC(=O)O[C@H]1C[C@H]2OC[C@@]2(OC(C)=O)C2[C@H](OC(=O)c3ccccc3)[C@]3(O)C[C@H](OC(=O)[C@H](O)[C@@H](NC(=O)OCC(C)C)c4ccsc4)C(C)=C([C@@H](O)C(=O)[C@@]21C)C3(C)C (stereo partly drawn) [Compound 4515] | < 10 |
| CCC(C)(C)OC(=O)N[C@@H](c1ccco1)[C@@H](O)C(=O)O[C@H]1C[C@@]2(O)[C@@H](OC(=O)c3ccccc3)C3[C@](C)(C(=O)[C@H](O)C(=C1C)C2(C)C)[C@@H](OC(=O)OCc1ccccc1)C[C@H]1OC[C@@]31OC(C)=O (stereo partly drawn) [Compound 6246] | < 1 |
| CCOC(=O)O[C@H]1C[C@H]2OC[C@@]2(OC(C)=O)C2[C@H](OC(=O)c3ccccc3)[C@]3(O)C[C@H](OC(=O)[C@H](O)[C@@H](NC(=O)OC(C)(C)C)c4ccoc4)C(C)=C([C@@H](O)C(=O)[C@@]21C)C3(C)C (stereo partly drawn) [Compound 4464] | < 1 |
| CCOC(=O)O[C@H]1C[C@H]2OC[C@@]2(OC(C)=O)C2[C@H](OC(=O)c3ccccc3)[C@]3(O)C[C@H](OC(=O)[C@H](O)[C@@H](NC(=O)OCC(C)C)c4ccco4)C(C)=C([C@@H](O)C(=O)[C@@]21C)C3(C)C (stereo partly drawn) [Compound 4696] | < 1 |
| C/C=C/C(=O)N[C@@H](c1ccoc1)[C@@H](O)C(=O)O[C@H]1C[C@@]2(O)[C@@H](OC(=O)c3ccccc3)C3[C@](C)(C(=O)[C@H](O)C(=C1C)C2(C)C)[C@@H](OC(=O)OC)C[C@H]1OC[C@@]31OC(C)=O (stereo partly drawn) [Compound 4877] | < 1 |
| CCOC(=O)O[C@H]1C[C@H]2OC[C@@]2(OC(C)=O)C2[C@H](OC(=O)c3ccccc3)[C@]3(O)C[C@H](OC(=O)[C@H](O)[C@@H](NC(=O)OCC(C)C)c4ccsc4)C(C)=C([C@@H](O)C(=O)[C@@]21C)C3(C)C (stereo partly drawn) [Compound 4979] | < 10 |
| COC(=O)O[C@H]1C[C@H]2OC[C@@]2(OC(C)=O)C2[C@H](OC(=O)c3ccccc3)[C@]3(O)C[C@H](OC(=O)[C@H](O)[C@@H](NC(=O)OCC(C)C)C4CC4)C(C)=C([C@@H](O)C(=O)[C@@]21C)C3(C)C (stereo partly drawn) [Compound 5211] | < 10 |
| COC(=O)O[C@H]1C[C@H]2OC[C@@]2(OC(C)=O)C2[C@H](OC(=O)c3ccccc3)[C@]3(O)C[C@H](OC(=O)[C@H](O)[C@H](C=C(C)C)NC(=O)OCC(C)C)C(C)=C([C@@H](O)C(=O)[C@@]21C)C3(C)C (stereo partly drawn) [Compound 4644] | < 10 |
| COC(=O)O[C@H]1C[C@H]2OC[C@@]2(OC(C)=O)C2[C@H](OC(=O)c3ccccc3)[C@]3(O)C[C@H](OC(=O)[C@H](O)[C@@H](NC(=O)OCC(C)C)c4ccco4)C(C)=C([C@@H](O)C(=O)[C@@]21C)C3(C)C (stereo partly drawn) [Compound 4656] | < 1 |

| Compound | IC50 [nM] |
| --- | --- |
| CCOC(=O)O[C@H]1C[C@H]2OC[C@@]2(OC(C)=O)C2[C@H](OC(=O)c3ccccc3)[C@]3(O)C[C@H](OC(=O)[C@H](O)[C@@H](NC(=O)OC(C)(C)C)c4cccs4)C(C)=C([C@@H](O)C(=O)[C@@]21C)C3(C)C (stereo partly drawn) [Compound 4234] | < 1 |
| CCOC(=O)O[C@H]1C[C@H]2OC[C@@]2(OC(C)=O)C2[C@H](OC(=O)c3ccccc3)[C@]3(O)C[C@H](OC(=O)[C@H](O)[C@@H](NC(=O)C=C(C)C)c4ccco4)C(C)=C([C@@H](O)C(=O)[C@@]21C)C3(C)C (stereo partly drawn) [Compound 6151] | < 1 |
| COC(=O)O[C@H]1C[C@H]2OC[C@@]2(OC(C)=O)C2[C@H](OC(=O)c3ccccc3)[C@]3(O)C[C@H](OC(=O)[C@H](O)[C@@H](NC(=O)c4cccs4)c4cccs4)C(C)=C([C@@H](O)C(=O)[C@@]21C)C3(C)C (stereo partly drawn) [Compound 4424] | < 1 |
| COC(=O)O[C@H]1C[C@H]2OC[C@@]2(OC(C)=O)C2[C@H](OC(=O)c3ccccc3)[C@]3(O)C[C@H](OC(=O)[C@H](O)[C@@H](NC(=O)C=C(C)C)c4cccs4)C(C)=C([C@@H](O)C(=O)[C@@]21C)C3(C)C (stereo partly drawn) [Compound 4244] | < 1 |
| C/C=C/C(=O)N[C@@H](c1cccs1)[C@@H](O)C(=O)O[C@H]1C[C@@]2(O)[C@@H](OC(=O)c3ccccc3)C3[C@](C)(C(=O)[C@H](O)C(=C1C)C2(C)C)[C@@H](OC(=O)OCC)C[C@H]1OC[C@@]31OC(C)=O (stereo partly drawn) [Compound 4855] | < 1 |
| COC(=O)O[C@H]1C[C@H]2OC[C@@]2(OC(C)=O)C2[C@H](OC(=O)c3ccccc3)[C@]3(O)C[C@H](OC(=O)[C@H](O)[C@@H](NC(=O)c4ccccc4)c4cccs4)C(C)=C([C@@H](O)C(=O)[C@@]21C)C3(C)C (stereo partly drawn) [Compound 4411] | < 1 |
| CCOC(=O)O[C@H]1C[C@H]2OC[C@@]2(OC(C)=O)C2[C@H](OC(=O)c3ccccc3)[C@]3(O)C[C@H](OC(=O)[C@H](O)[C@H](C=C(C)C)NC(=O)OCC(C)C)C(C)=C([C@@H](O)C(=O)[C@@]21C)C3(C)C (stereo partly drawn) [Compound 4688] | < 10 |
| CCOC(=O)O[C@H]1C[C@H]2OC[C@@]2(OC(C)=O)C2[C@H](OC(=O)c3ccccc3)[C@]3(O)C[C@H](OC(=O)[C@H](O)[C@@H](NC(=O)c4ccco4)c4cccs4)C(C)=C([C@@H](O)C(=O)[C@@]21C)C3(C)C (stereo partly drawn) [Compound 4304] | < 10 |
| COC(=O)O[C@H]1C[C@H]2OC[C@@]2(OC(C)=O)C2[C@H](OC(=O)c3ccccc3)[C@]3(O)C[C@H](OC(=O)[C@H](O)[C@@H](NC(=O)OC(C)(C)C)c4ccco4)C(C)=C([C@@H](O)C(=O)[C@@]21C)C3(C)C (stereo partly drawn) [Compound 4533] | < 1 |
| CC(=O)O[C@@]12CO[C@@H]1C[C@H](OC(=O)OCc1ccccc1)[C@@]1(C)C(=O)[C@H](O)C3=C(C)[C@@H](OC(=O)[C@H](O)[C@@H](NC(=O)C=C(C)C)c4ccco4)C[C@@](O)([C@@H](OC(=O)c4ccccc4)C12)C3(C)C (stereo partly drawn) [Compound 5466] | < 1 |
| COC(=O)O[C@H]1C[C@H]2OC[C@@]2(OC(C)=O)C2[C@H](OC(=O)c3ccccc3)[C@]3(O)C[C@H](OC(=O)[C@H](O)[C@H](C=C(C)C)NC(=O)OC(C)(C)C)C(C)=C([C@@H](O)C(=O)[C@@]21C)C3(C)C (stereo partly drawn) [Compound 4484] | < 1 |
| COC(=O)O[C@H]1C[C@H]2OC[C@@]2(OC(C)=O)C2[C@H](OC(=O)c3ccccc3)[C@]3(O)C[C@H](OC(=O)[C@H](O)[C@@H](NC(=O)c4ccco4)c4cccs4)C(C)=C([C@@H](O)C(=O)[C@@]21C)C3(C)C (stereo partly drawn) [Compound 4222] | < 1 |
| CC(=O)O[C@H]1C[C@H]2OC[C@@]2(OC(C)=O)C2[C@H](OC(=O)c3ccccc3)[C@]3(O)C[C@H](OC(=O)[C@H](O)[C@@H](NC(=O)OC(C)(C)C)C4CC4)C(C)=C([C@@H](O)C(=O)[C@@]21C)C3(C)C (stereo partly drawn) [Compound 4555] | < 1 |
| COC(=O)O[C@H]1C[C@H]2OC[C@@]2(OC(C)=O)C2[C@H](OC(=O)c3ccccc3)[C@]3(O)C[C@H](OC(=O)[C@H](O)[C@@H](NC(=O)OCC(C)C)c4cccs4)C(C)=C([C@@H](O)C(=O)[C@@]21C)C3(C)C (stereo partly drawn) [Compound 4355] | < 1 |
| CCOC(=O)O[C@H]1C[C@H]2OC[C@@]2(OC(C)=O)C2[C@H](OC(=O)c3ccccc3)[C@]3(O)C[C@H](OC(=O)[C@H](O)[C@@H](NC(=O)c4cccs4)c4cccs4)C(C)=C([C@@H](O)C(=O)[C@@]21C)C3(C)C (stereo partly drawn) [Compound 4455] | < 1 |
| C/C=C/C(=O)N[C@@H](c1ccco1)[C@@H](O)C(=O)O[C@H]1C[C@@]2(O)[C@@H](OC(=O)c3ccccc3)C3[C@](C)(C(=O)[C@H](O)C(=C1C)C2(C)C)[C@@H](OC(=O)OCC)C[C@H]1OC[C@@]31OC(C)=O (stereo partly drawn) [Compound 4818] | < 1 |
